# What was measured:
# TNF = experiment: Pre-screen for TNF inhibition activity of synthesized molecules (Table 1); format: cell-based
# [1] = Cell viability in pre-screen (Table 1); format: cell-based
# TNF-α = experiment: LPS induced TNF-α release in human PBMC; format: cell-based; settings: PBMC isolated from human blood
# Text: In order to evaluate the ability of RSCL-0409 to inhibit LPS induced TNF-α secretion in a physiological scenario, the present invention has tested the same in PBMC isolated from human blood (FIG. 3). […] The TNF levels were not detectable in PBMCs without LPS and with RSCL-0409 treatment alone, indicating its specificity in LPS induced TNF-α through a TLR mediated process. ***P<0.001 value is for LPS treated vs. RSCL-0409 treated.
# [2] = test system: ICAM-1, COX-2, IL-1β and IL-8 genes; experiment: mRNA expression of pro-inflammatory genes in THP-1 cells; format: cell-based, human; settings: THP-1, LPS 250 ng/ml
# Description: The inhibitory effect of the present invention, RSCL-0409 on mRNA was checked on pro-inflammatory genes like intercellular adhesion molecule1 (ICAM-1), cyclooxygenase 2 (COX-2), IL-1β and IL-8. THP-1 cells (3×10^6 cells) were seeded in a 6-well dish. The cells were treated with RSCL-0409 ([…]) for 1 hr followed by incubation with or without 250 ng/ml of LPS. After two washes with ice-cold PBS, the cells were harvested and total cellular RNA was isolated using TRIZOL Reagent (Invitrogen) according to the manufacturer's instructions. cDNA synthesis was done using high capacity cDNA reverse transcription kit (ABI systems). Amplification of ICAM-1, COX-2, IL-1β and IL-8 genes from the cDNA was carried out using the respective gene specific primers.
# COX-2 pathway = experiment: Arachadonic acid induced PGE2 release in A549 cells (EIA); format: cell-based, human
# Text: COX-2 is the key enzyme regulating the production of prostaglandins, which act as central mediators of inflammation. […] It is well documented COX-2 pathway inhibitors were regarded as promising nonsteroidal anti-inflammatory drugs (NSAIDs). So we decided to test the ability of RSCL-0409 to block the COX-2 pathway to substantiate our earlier mRNA observation. For that purpose, we chose A549 cells, a human lung cancer cell line where COX-2 is activated by AA in serum-free stimulation established by Yao et al for 12 hr. (Yao J C, Duan W G, Yun Y, Liu de Q, Yan M, Jiang Z Z, Zhang L Y. Screening method for nonsteroidal antiinflammatory drugs based on the cyclooxygenase 2 pathway activated by serum-free stimulation in A549 cells. Yakugaku Zasshi. 2007; 127: 527-32.) In order to determine the efficiency of our molecule, we have incorporated two known COX-2 NSAIDs-Piroxicam and Ibuprofen for comparison purposes. A549 cells (50×10^4 cells/well) in serum free medium were pretreated with different concentrations (10 μM, 5 μM, 2.5 μM, and 1.25 μM) of the NSAIDs and RSCL-0409 for 30 min. Then the cells were incubated with AA ([…]) for another 30 min. Prostaglandin E2 (PGE2), a metabolite of AA through the Cox pathway, was assayed in an enzyme immunoassay (EIA) kit from R&D systems.
# RAW264.7 cells = experiment: LPS induced nitric oxide (NO) release in RAW 264.7 cells (Griess reaction); format: cell-based; settings: RAW264.7, LPS 250 ng/ml
# Description: RAW264.7 cells provide an excellent model for evaluations of potential inhibitors on the pathway leading the induction of iNOS and NO production. Nitric oxide production was determined in RAW264.7 cells from the National Center of Cell Science (NCCS, Pune) cultured in color-free DMEM with standard supplements by measuring the amount of nitrite from cell culture supernatant. RAW264.7 cells (5×10^4 per well) were stimulated for 24 hr with or without LPS (250 ng/ml) in the absence of presence of the RSCL-0409. Nitrite was then measured using the Griess reaction. 100 μl of cell culture supernatant was reacted with 100 μl of Griess reagent followed by spectrophotometric measurement at 550 nm. Nitrite concentrations in the supernatants were determined by comparison with a sodium nitrite standard curve. Alongside RSCL-0409 we also used known strong antioxidants (Vit C, Ascorbic acid, Catechin and Trolox) which inhibit NO to comparative antioxidant efficiency.
# NF-κB = NF-κB activation and nuclear translocation in LPS stimulated THP-1 cells (FACS phospho p65, immunoblot); format: cell-based, human
# Description: Further, for the detection of intracellular location of phospho NF-κB p65 subunits, 1 hr LPS-stimulated cells with and without pretreatment of RSCL-0409 (50 μM—FIG. 7b) were fixed with 4% paraformaldehyde in PBS for 30 min and washed with Fluorescence-activated cell sorting (FACS) buffer [2% Fetal calm serum (FCS) in 1× Phosphate buffered saline (PBS)]. Permeabilisation is done using 90% methanol. These cells were then treated with phospho p65 monoclonal antibody tagged with Alexa Fluor 488 (Cell Signaling Technology, Inc, Ma, USA) for 1 hr at 37° C., followed by washing FACS buffer. Cells were then resuspended in PBS and acquired in BD FACS Calibur.
# The nuclear fractions were obtained from LPS stimulated THP-1 cells at the indicated times (FIG. 7c). Nuclear proteins electrophoresed were processed for immunoblots using a NF-κB specific antibody.
structure (smiles),measurement,setting,value
"COc1ccc(OC2OC3COC(c4ccccc4)OC3C(OC3OC(COC(=O)CCC(C)=O)C(OC(=O)CCl)C(OC(C)=O)C3OC(C)=O)C2NC(=O)C(Cl)(Cl)Cl)cc1 [RSCL-0409, p-Methoxy phenyl-O-(2,3-di-O-acetyl-4-O-chloroacetyl-6-O-levulinoyl-β-D-glucopyranosyl)-(1-3)-2-deoxy-2-trichloroacetamido-4,6-O-benzylidene-α-D-glucopyranoside]",% TNF Inhibition,TNF; 1 uM,0%
same,% TNF Inhibition,TNF; 10 uM,32%
same,% TNF Inhibition,TNF; 50 uM,81%
same,% TNF Inhibition,TNF; 100 uM,91%
same,% Viability,[1]; 1 uM,108%
same,% Viability,[1]; 10 uM,112%
same,% Viability,[1]; 50 uM,114%
same,% Viability,[1]; 100 uM,113%
same,LPS induced TNF-α secretion,TNF-α,inhibitory effects similar to that seen in THP-1 cells
same,"mRNA expression of ICAM-1, COX-2, IL-1β and IL-8",[2],inhibited mRNA expression levels of the tested genes
same,PGE2 release,"COX-2 pathway; A549 cells, 10, 5, 2.5 and 1.25 μM, AA induced",concentration dependent inhibition of PGE2 release
same,concentration still effective on PGE2 release,"COX-2 pathway; A549 cells, AA induced",1.25 µM
same,inhibition of PGE2 in comparison with the NSAIDs,COX-2 pathway; at all the concentrations used,better than Piroxicam
same,"anti-oxidant activity versus reference antioxidants (Vit C, Ascorbic acid, Catechin and Trolox)",RAW264.7 cells,far more potent
same,NO secretion induced by LPS,RAW264.7 cells; 24 hr,inhibited by RSCL-0409 in a concentration dependent manner
same,phospho NF-κB p65 (FACS),"NF-κB; THP-1, 1 hr LPS, 50 μM",inhibitory role in NF-κB signaling
same,translocation of NF-κB to the nucleus,NF-κB; nuclear fractions of LPS stimulated THP-1 cells,blocked translocation of NF-κB into the nucleus
